Experiments:
[1] = system: interstitial pneumonia model mice induced by bleomycin; conditions: Non-Patent Document 1; cited from earlier work
[2] = system: Human Lung fibroblasts; experiment: Proliferation of human lung fibroblasts stimulated by TGF-α (Test Example 2); assay type: cell-based; conditions: TGF-α stimulation, 10 μL of a 1 μM solution per well, 48 hours, FIG. 2
Protocol: Human lung fibroblasts were incubated in growth medium under the condition of 37° C. and 5% CO2. The human lung fibroblasts were seeded in 96-well plate at 3×10^3 cell/well and incubated overnight in growth medium.
The fibroblasts were washed once with 100 μL of phosphate-buffered saline. Then basal medium was added thereto and incubation was conducted for 24 hours. They were further washed with 100 μL of phosphate-buffered saline once and then basal medium was added in an amount of 80 μL/well. Ten μL of a 1 μM solution of the compound A was added to each well and incubated for 2 hours. The solution used therefor was prepared in such a manner that the compound A was previously dissolved in DMSO and the resulting 1 mM solution was diluted 100-fold with basal medium. For the non-stimulated control group and the control group, DMSO which was diluted 100-fold with the basal medium was used.
Then a 100 ng/mL solution of transforming growth factor-α (TGF-α) (manufactured by Chemicon) was added in an amount of 10 μL to each well and incubated for 48 hours. For a non-stimulated control group, the basal medium was used.
After incubating for 48 hours, absorbance at 490 nm was measured, in the same way as in Test Example 1, using a reagent for the analysis of cell proliferation activity. For the measurement of the absorbance, a microplate reader was used.

[3] = system: α smooth muscle actin (ACTA) mRNA; experiment: ACTA mRNA expression in human lung fibroblasts stimulated by TGF β1, real-time quantitative PCR (Test Example 4); assay type: cell-based; conditions: TGF β1 stimulation, 24 hours, corrected for GAPDH, FIG. 6
Protocol: (§1) Human lung fibroblasts were seeded in 24-well plate at 1×10^5 cells/well and incubated in growth medium in the same way as in Test Example 1 overnight. The fibroblasts were washed once with 500 μL of basal medium, and added with 500 μL of basal medium followed by incubation for 24 hours. They were further washed once with 500 μL of basal medium and then 400 μL/well of basal medium was added. A 1, 10 or […] of the compound A prepared by the same manner as in Test Example 3 was added in an amount of 50 μL to each well. For the non-stimulated control group and the control group, DMSO which was diluted 100-fold with basal medium was added in an amount of 50 μL. […] Using the cDNA prepared as above as a template, expressed amount of mRNA for type I collagen al chain (COL 1α1), type I collagen α2 chain (COL 1α2), α smooth muscle actin (ACTA), TGF β1 and glyceraldehydes 3-phosphate dehydrogenase (GAPDH) were measured by means of a real-time quantitative PCR method. The real-time quantitative PCR was conducted using Platinum SYBR Green qPCR Super-Mix-UDG with ROX (manufactured by Invitrogen) and a primer being specific to each gene in accordance with the manual attached to the Platinum SYBR Green qPCR Super-Mix-UDG with ROX using ABI PRISM 7000 (Applied Biosystems). […]

[4] = system: Human skin fibroblasts; experiment: Collagen production (PIP) in human skin fibroblasts stimulated by TGF β1 (Test Example 6); assay type: cell-based; conditions: TGF β1 stimulation, 10 μL of 0.1, 1, 10 or 100 μM solution per well, 48 hours, FIG. 9
Protocol: Human skin fibroblasts (manufactured by Kurabo; hereinafter, the same product will be used) were seeded in 96-well plate at 5×10^3 cells/well and incubated in a Dulbecco's modified Eagle's medium (DMEM medium; manufactured by Nippon Seiyaku; hereinafter, the same product will be used) containing 10% of bovine fetal serum under the condition of 37° C. and 5% CO2 overnight. The human skin fibroblasts were washed once with an DMEM medium containing no bovine fetal serum (hereinafter, referred to as “serum-free DMEM medium”), and 100 μL of serum-free DMEM medium was added thereto followed by incubation for 24 hours. After washing with serum-free DMEM medium once more, serum-free DMEM medium was added in an amount of 80 μL/well. Ten μL of the 0.1, 1, 10 or 100 μM solution of the compound A prepared by the same method as in Test Example 3 was added to each well. […] After incubating for 48 hours, cell proliferation activity (absorbance) was measured by the MTT method, and PIP concentration in the medium was measured in the same way as in Test Example 3. The evaluation of this test was carried out using the value (index for production of collagen) calculated as a relative value where a mean value in the non-stimulated control group was defined as 1 after correcting the measured value of PIP concentration using the cell proliferation activity value (absorbance).

[5] = system: Human Lung fibroblasts; experiment: Collagen production (PIP) in human lung fibroblasts stimulated by TGF β1 (Test Example 3); assay type: cell-based; conditions: TGF β1 stimulation, 10 μL of 0.1, 1, 10 or 100 μM solution per well, 48 hours, FIG. 3
Protocol: Human lung fibroblasts were seeded in 96-well plate at 5×10^3 cells/well and incubated in the growth medium in the same way as in Test Example 1 overnight. The fibroblasts were washed once with 100 μL of basal medium and 100 μL of basal medium was added thereto followed by incubating for 24 hours. They were further washed once with 100 μL of basal medium and then 80 μL/well of basal medium was added. A 0.1, 1, 10 or 100 μM solution of the compound A was added in an amount of 10 μL to each well. […] After incubating for 48 hours, the medium was recovered for measuring the concentration of the type I pro-collagen C terminal peptide (PIP) in the medium, and after an addition of 100 μL of the basal medium, the cell proliferation activity was measured using 3-(4,5-dimethyl-2-thiazolyl)-2,5-diphenyl-2H-tetrazolium bromide (MTT) (manufactured by Nacalai Tesque). Measurement of the cell proliferation activity was conducted in such a manner that 10 μL of a 5 mg/mL MTT stock solution was added to each well, and after incubation for 4 hours, 100 μL of a 0.04M isopropanol solution of hydrochloric acid was added to each well, followed by the absorbance measurement at 595 nm (reference wavelength: 655 nm) using a microplate reader. […]

[6] = system: Human Lung fibroblasts; experiment: Proliferation of human lung fibroblasts stimulated by EGF (Test Example 1); assay type: cell-based; conditions: EGF stimulation, 10 μL of a 100 μM solution per well, 48 hours, FIG. 1
Protocol: Human Lung fibroblasts (manufactured by Lonza Walkersville; hereinafter, the same product will be used) were cultured in growth medium, which consisted of basal medium for human lung fibroblasts (manufactured by Lonza Walkersville; hereinafter, the same product will be used and referred to as “basal medium”) with FGM-2 additional factor set (manufactured by Lonza Walkersville; hereinafter, the same product will be used) under the condition of 37° C. and 5% CO2. The human lung fibroblasts were seeded in 96-well plate at 1×10^3 cell/well and incubated overnight in growth medium.
The fibroblasts were washed once with 100 μL of phosphate-buffered saline (manufactured by Nissui Seiyaku; hereinafter, the same product will be used) and 100 μL of basal medium was added thereto followed by incubation for 24 hours. They were further washed with 100 μL of phosphate-buffered saline once and then basal medium was added in an amount of 80 μL/well. Ten μL of a 100 μM solution of the compound A or the compound B was added to each well and incubated for 2 hours. […]
After incubating for 48 hours, absorbance at 490 nm was measured using Cell Titer 96, AQueous Assay (manufactured by Promega) for the analysis of cell proliferation activity. For the measurement of the absorbance, a microplate reader (Benchmark, manufactured by Bio-Rad; hereinafter, the same one will be used) was used.

[7] = system: TGF β1 mRNA; experiment: TGF β1 mRNA expression in human lung fibroblasts stimulated by TGF β1, real-time quantitative PCR (Test Example 4); assay type: cell-based; conditions: TGF β1 stimulation, 24 hours, corrected for GAPDH, FIG. 7
Protocol: as §1

[8] = system: type I collagen α2 chain (COL 1α2) mRNA; experiment: COL 1α2 mRNA expression in human lung fibroblasts stimulated by TGF β1, real-time quantitative PCR (Test Example 4); assay type: cell-based; conditions: TGF β1 stimulation, 24 hours, corrected for GAPDH, FIG. 5
Protocol: as §1

[9] = system: Rat renal interstitial cells (NRF 49F cells); experiment: Proliferation of rat renal interstitial cells stimulated by PDGF BB, MTT (Test Example 5); assay type: cell-based; conditions: PDGF BB stimulation, 10 μL of a 100 μM solution per well, 48 hours, FIG. 8
Protocol: Rat renal interstitial cells (NRF 49F cells) were seeded in 96-well plate at 1×10^4 cells/well and incubated in an Minimum Essential Medium (MEM medium; manufactured by Nippon Seiyaku; hereinafter, the same product will be used) containing 10% of bovine fetal serum (manufactured by JRH Bioscience; hereinafter, the same product will be used) under the condition of 37° C. and 5% CO2 overnight. The cells were washed once with an MEM medium containing no bovine fetal serum (hereinafter, referred to as “serum-free MEM medium”), and 100 μL of the serum-free MEM medium was added thereto followed by incubation for 24 hours. After washing with serum-free MEM medium once, serum-free MEM medium was added in an amount of 80 μL/well. A 100 μM solution of the compound A prepared by the same method as in Test Example 1 was added in an amount of 10 μL to each well. For the non-stimulated control group and the control group, DMSO which was diluted 100-fold with serum-free MEM medium was added in an amount of 10 μL. […] After incubating for 48 hours, cell proliferation activity (absorbance) was measured by an MTT method in the same way as in Test Example 3. The evaluation of this test was carried out using the value (cell proliferation level) expressed as a relative value where a mean value of absorption of the non-stimulating control group was defined as 1.

[10] = system: type I collagen al chain (COL 1α1) mRNA; experiment: COL 1α1 mRNA expression in human lung fibroblasts stimulated by TGF β1, real-time quantitative PCR (Test Example 4); assay type: cell-based; conditions: TGF β1 stimulation, 24 hours, corrected for GAPDH, FIG. 4
Protocol: as §1

For `O=C(O)COc1cccc2c1CCC=C2CCO/N=C(\c1ccccc1)c1cccnc1` [ONO-1301], the “effect for interstitial pneumonia” value [1] is given as “inhibitive effect”.

In the case of `CC(C)N(CCCCOCC(=O)O)c1cnc(-c2ccccc2)c(-c2ccccc2)n1` [compound A, 2-{4-[N-(5,6-diphenyl-pyrazin-2-yl)-N-isopropylamino]butyloxy}acetic acid], the “cell proliferation activity (absorbance at 490 nm) as compared with the control group” value [2] was “significantly decreased”, the “ACTA mRNA expression level as compared with the control group” value [3] was “decreased” and the “production of collagen (index for production of collagen, PIP corrected for cell proliferation activity) as compared with the control group” value [4] was “significantly decreased”. For the same compound, the “collagen production (index for collagen production, PIP corrected for cell proliferation activity) as compared with the control group” value [5] was “significantly decreased”, the “cell proliferation activity (absorbance at 490 nm) as compared with the control group” value [6] was “significantly decreased” and the “TGF β1 mRNA expression level as compared with the control group” value [7] was “decreased”. The “COL 1α2 mRNA expression level as compared with the control group” value [8] was “decreased”, the “cell proliferation level as compared with the control group” value [9] was “significantly decreased” and the “COL 1α1 mRNA expression level as compared with the control group” value [10] was “decreased”.

With `CC(C)N(CCCCOCC(=O)NS(C)(=O)=O)c1cnc(-c2ccccc2)c(-c2ccccc2)n1` [compound B, 2-{4-[N-(5,6-diphenylpyrazin-2-yl)-N-isopropylamino]butyl-oxy}-N-(methylsulfonyl)acetamide] the “cell proliferation activity (absorbance at 490 nm) as compared with the control group” value [2] was “inhibitive effects” and the “cell proliferation activity (absorbance at 490 nm) as compared with the control group” value [6] was “significantly decreased”.

— US20140221397A1, “FIBROSIS INHIBITOR” (Nippon Shinyaku Co., Ltd., priority 2008, published 2014)
